Data on 22 compounds can be found in paper PMC6826492, “Experimental and Computational Study of the Antioxidative Potential of Novel Nitro and Amino Substituted Benzimidazole/Benzothiazole-2-Carboxamides with Antiproliferative Activity” (Antioxidants, 2019).

The conditions of series [1]: cited from earlier work; for N–H BDE: in water ref 48.
Series [2] in a line: DPPH free radical scavenging. In kind it is biochemical. The arrangement: key to DPPH IC50: –: Very low activity. Particulars: after 30 min of incubation with 100 μM DPPH. As to the method:
The reducing activity of investigated systems was achieved by the DPPH method according to previously described procedures with modifications to assure the use in a 96-well microplate. Briefly, equal volumes of various concentrations of tested molecules (dissolved in DMSO) were added to the solution of DPPH (final concentration 50 µM in absolute ethanol). Ethanol and DMSO were used as control solutions in line with earlier reports.
For orientation: DPPH is a stable violet radical that fades when it is reduced.

A short description of series [3]: Ferric reducing/antioxidant power (FRAP assay). In kind it is biochemical. On the set-up: key to FRAP: –: Very low activity. Particulars: means ± standard deviation; absorbance at 593 nm. The protocol:
The FRAP method was carried out according to previously described procedures with some modifications to be compatible with an assay on a 96-well microplate. All tests were done in triplicate, while the obtained results were averaged and reported as Fe^2+ equivalents (Fe^2+ µmol).
By using the FRAP assay, we investigated the reducing power of investigated systems, which was monitored by the corresponding changes in the absorbance at 593 nm. This method is based on the ability of systems to reduce the ferric tripyridyl triazine complex (TPTZ) to the ferrous state (Fe^2+), which can be seen by an intense blue color. […] Good reducing ability was shown by the trimethoxy substituted benzimidazole-2-carboxamide 14 bearing the amino group (1102.5 ± 14.1 mmolFe^2+/mmolC).

The test system of a further series is H 460 (lung carcinoma). Description: Antiproliferative activity in vitro (MTT assay). In kind it is cell-based, human. To be noted: 72 h incubation, concentration that causes 50% growth inhibition. The protocol:
(§1) The experiments were performed on four human cell lines, including HCT 116 (colon carcinoma), H 460 (lung carcinoma), MCF-7 (breast carcinoma), and HEK 293 (human embryonic kidney cells), in line with previously published experimental procedures. Briefly, the cells were grown in DMEM medium with the addition of 10% fetal bovine serum (FBS), 2 mM L-glutamine, 100 U/mL penicillin, and 100 µg/mL streptomycin, and cultured as monolayers at 37 °C in a humidified atmosphere with 5% CO2. Cells were seeded at 2 × 10^3 cells/well in a standard 96-well microtiter plates and left to attach for 24 h. The next day, a test compound was added in five serial 10-fold dilutions. The rate of cell growth was evaluated after 72 h of incubation with MTT assays. The obtained results are expressed as IC50 values, calculated from the concentration-response curve using linear regression analysis by fitting the test concentrations that give PG values above and below the reference value (i.e., 50%). Each test was performed in quadruplicate in at least two individual experiments.
(Tetrazolium dyes change colour on reduction, which living cells bring about.)

The test system of series [4] is HCT 116 (colon carcinoma). Description: Antiproliferative activity in vitro (MTT assay). To be noted: 72 h incubation, concentration that causes 50% growth inhibition, read-out: IC50 HCT116. In kind it is cell-based, human. The protocol:
as §1

The next series concerns MCF-7 (breast carcinoma). Kind of series: Antiproliferative activity in vitro (MTT assay). In kind it is cell-based, human. To be noted: 72 h incubation, concentration that causes 50% growth inhibition. The protocol: as §1
The test system of series [5] is HEK 293 (human embryonic kidney cells). Kind of series: Cytotoxic activity on non-cancerous cells (MTT assay). Particulars: non-tumor cell line, 72 h incubation, MTT, concentration that causes 50% growth inhibition. In kind it is cell-based. The protocol:
as §1

Series [6] is described as follows: DFT calculation of bond dissociation and ionization energies. To be noted: for BDE lower than BDE (M1): difference to M1. The source says: All geometrical parameters were optimized employing the density functional theory (DFT) B3LYP functional (unrestricted UB3LYP for the radicals), together with the 6–31+G(d) basis set, followed by the vibrational analysis using the Gaussian 16 software. Thermal corrections were extracted from the matching uncorrected vibrational frequencies, also used to confirm the obtained structures as true minima by the lack of imaginary frequencies. The final electronic energies were refined through single-point calculations with a highly flexible 6–311++G(2df,2pd) basis set. Solvent effects were considered through the implicit SMD polarizable continuum model with all parameters for pure ethanol (ε = 24.852), giving the B3LYP/6–311++G(2df,2pd)//(SMD)/B3LYP/6–31+G(d) model employed here, being fully in line with our earlier reports. As such, all computational values correspond to differences in Gibbs free energies obtained at a room temperature of 298 K and a normal pressure of 1 atm. The choice of this computational setup was additionally prompted by its success in modeling mechanisms of various antioxidants, and in reproducing kinetic and thermodynamic parameters of a variety of organic and enzymatic reactions. According to the literature, there are several mechanisms that relate to the antioxidative properties of molecules. Here, we inspected the two most frequent, and usually thermodynamically most preferred antioxidant mechanisms, namely hydrogen atom transfer (HAT), and single electron transfer (SET) that is commonly followed by proton transfer (SET-PT). All these mechanisms result in the formation of the same antioxidant radical.
HAT is a major route where the H atom (hydrogen radical, H•) is directly transferred from an antioxidant (M) to a free radical accompanied by the homolytic M–H bond cleavage. The capacity of this process is governed by the M–H bond dissociation energy (BDE), calculated as:M–H → M• + H• BDE = G(M•) + G(H•) − G(M–H).
Scavenging the free radicals can also be accomplished by donating an electron from a system M in the SET-PT process. This process is driven by the adiabatic ionization energy (IE) necessary to eject a single electron from M, calculated as:M → M•^+ + e^− IE = G(M•^+) − G(M).

The mark [7] stands for this setting: monocationic, in acetonitrile ref 39.

Read-outs that look alike come from different tables or passages of the source.

For the compound `Oc1cccc(O)c1O` [1,2,3-trihydroxybenzene], the “calculated BDE lower than that for its 1,3,5-trihydroxy analogue” value in series [1] (in toluene ref 46) is 15 kcal mol^−1.
As for `COc1ccc(N)cc1` [4-OMe-aniline], in series [1], the “N–H BDE” value is 87.2 kcal/mol.
As to `Cc1cc(C(C)(C)C)c(O)c(C(C)(C)C)c1` [BHT, butylated hydroxytoluene, reference compound], it took 25 ± 4 µM to reach half-maximal inhibition in series [2] (IC50). In series [3], this compound showed an FRAP of 2089 ± 60 mmolFe^2+/mmolC. Also, the BDE is 76.9 kcal/mol in series [1] (in benzene ref 45), 79.9 kcal/mol in series [1] (in heptane ref 44) and 72.4 kcal/mol in series [1] (in toluene ref 46).
With `N#Cc1ccc(N)cc1` [Compound 4-CN-aniline, 4-CN-aniline], the “N–H BDE” value in series [1] is 91.8 kcal/mol.
Take `COc1ccc(C(=O)Nc2nc3ccc(N)cc3s2)c(OC)c1.Cl` [Compound 22, N-(6-aminobenzothiazol-2-yl)-2,4-dimethoxybenzamide hydrochloride]: the half-maximal inhibitory concentration (IC50) is 50 ± 8 µM with H 460 (lung carcinoma); 8 ± 2 µM in series [4]; 3 ± 0.2 µM in the series with MCF-7 (breast carcinoma); 11 ± 1 µM in series [5]; 4 ± 0.04 µM in series [2]. The FRAP in series [3] was 244.2 ± 3.0 mmolFe^2+/mmolC.
On to `O=C(Nc1nc2ccc([N+](=O)[O-])cc2s1)c1ccccc1O` [Compound 27, 2-hydroxy-N-(6-nitrobenzothiazol-2-yl)benzamide], for which the IC50 in the series with H 460 (lung carcinoma) (Homo sapiens, NCI-H460, 72 h) was 3 ± 0.2 µM; in series [4] (Homo sapiens, HCT-116, 72 h), 6 ± 1 µM; in the series with MCF-7 (breast carcinoma) (Homo sapiens, MCF7, 72 h) it was 2 ± 0.6 µM; in series [5] (Homo sapiens, HEK293), 3 ± 1 µM. The “DPPH IC50” value in series [2] is on record as “–”. In addition, the FRAP entry in series [3] is reported as “–”.
For the compound `COc1ccc(C(=O)Nc2nc3ccc([N+](=O)[O-])cc3s2)c(O)c1` [Compound 28, 2-hydroxy-4-methoxy-N-(6-nitrobenzothiazol-2-yl)benzamide], the concentration for half-maximal inhibition (IC50) in the series on H 460 (lung carcinoma) (Homo sapiens, NCI-H460, 72 h) stood at 8 ± 1 µM; in series [4] (Homo sapiens, HCT-116, 72 h) it was 7 ± 0.4 µM; in the series with MCF-7 (breast carcinoma) (Homo sapiens, MCF7, 72 h) it was 10 ± 8 µM; in series [5] (Homo sapiens, HEK293), 4 ± 2 µM. For the same compound, the “DPPH IC50” value in series [2] was “–”. The FRAP in series [3] was 39.8 ± 1.6 mmolFe^2+/mmolC.
For `O=C(Nc1nc2ccccc2s1)c1ccccc1` [Compound M1], the “BDE higher than that for BHT” value in series [6] (difference to BHT (65.8)) was 16.9 kcal/mol.
Regarding `O=C(NC1=Nc2ccccc2C1)c1ccccc1` [Compound M4], in series [6], the “BDE lower than BDE (M1)” value was 10.1 kcal/mol.
`Nc1ccc2nc(NC(=O)c3ccccc3)sc2c1` [Compound M6]: the “BDE lower than BDE (M1)” value in series [6] was 7.1 kcal/mol.
As to `Nc1ccc2nc(NC(=O)c3ccccc3)sc2c1` [Compound M7], the “BDE lower than BDE (BHT)” value in series [6] (difference to BHT (65.8)) is 17.5 kcal/mol.
`O=C(Nc1nc2ccccc2s1)c1ccc(O)cc1` [Compound M8]: the “BDE lower than BDE (M1)” value in series [6] was 4.8 kcal/mol.
For `COc1ccc(C(=O)Nc2nc3ccccc3s2)cc1` [Compound M9], the “BDE lower than BDE (M1)” value in series [6] is 0.5 kcal/mol.
Regarding `O=C(Nc1nc2ccc([N+](=O)[O-])cc2s1)c1ccc(O)cc1` [Compound M10], the “lowering of antioxidative capacity (BDE increase) relative to M8” value in series [6] (difference to M8) was 1.1 kcal/mol.
In the case of `COc1cc(C(=O)Nc2nc3ccc(N)cc3[nH]2)cc(OC)c1OC` [Compound M22], the “more potent antioxidant (lower BDE) than nitro-substituted M21” value in series [6] (difference to M21) is roughly 15 kcal/mol.
Turning to `CN` [Me–NH3^+], the BDE in series [1] (setting [7]) was 114.6 kcal/mol.
For `O=C(Nc1ccccc1)c1ccccc1` [Ph–CO–NH–Ph, reference compound], the BDE in series [1] (earlier calculations of the authors ref 24) is 85.3 kcal/mol.
With `Nc1ccccc1` [Ph–NH3^+], in series [1] (setting [7]), the BDE was 84.9 kcal/mol.
In the case of `Nc1ccccc1` [aniline], the “N–H BDE” value in series [1] was 89.1 kcal/mol.
Take `NC1CCCCC1` [c-C6H11–NH3^+]: in series [1] (setting [7]), the BDE was 113.6 kcal/mol.
For the compound `O=C(O)c1cc(O)c(O)c(O)c1` [gallic acid], the “calculated BDE” value in series [1] is 77.0 kcal/mol.
For `Oc1ccccc1` [phenol], the “calculated BDE” value in series [1] was 82.9 kcal/mol.

The term IC50 denotes the midpoint of a concentration-inhibition curve.
